Test results: US20070259329A1, “Anergy-inducing cellular composition” (BioVerde. Inc., priority 2006, published 2007)
Marks after values point to notes of the source that are not given here.

What was measured:
CD80 = biological target: T1, CD80 (Mus musculus, UniProt Q00609); assay: Lymphocyte marker analysis by flow cytometry, CD80 epitope; type: cell-based, murine (C57BI/6 splenocytes); details: for percent expression of cell surface molecule CD80: epitope-specific antibody, average of triplicate; for average percent suppression in epitope detection, CD80: relative to untreated control (0 ppm)
T1 construct: endogenous in cells; host or cells: murine splenocytes (C57Bl/6)
T1 sequence (Q00609 38-306): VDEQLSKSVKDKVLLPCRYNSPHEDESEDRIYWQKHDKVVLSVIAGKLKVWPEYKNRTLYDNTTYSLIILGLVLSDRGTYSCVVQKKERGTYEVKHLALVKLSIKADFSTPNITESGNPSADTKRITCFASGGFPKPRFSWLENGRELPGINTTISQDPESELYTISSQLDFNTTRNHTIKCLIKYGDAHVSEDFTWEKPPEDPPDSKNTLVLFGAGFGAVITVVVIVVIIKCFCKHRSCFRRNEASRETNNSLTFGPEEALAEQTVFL
Procedure: (§1) To evaluate the action of EGCG in rendering cells to become anergy-inducing, murine splenocytes were used as a model system. Splenocytes were collected from BALB/c (H2 K^b) and C57BI/6 (H2 K^d) female mice of 8 to 13 weeks of age in HBSS (BioWhittaker) with 1% FCS. Cells were washed with HBSS (1% FCS) and treated with the media solution which contains RPMI 1640 (Sigma-Aldrich), 10 mM HEPES (Dojindo), and various concentrations of EGCG (98% purity, Roche) described in the examples.
(§2) Flow cytometric analyses of surface epitopes for the control and EGCG-treated splenocytes were performed using a series of fluorescence-labeled monoclonal anti-mouse CD and MHC and corresponding isotype control antibodies (eBioscience: CD2, CD36, CD4, CD11a, CD25, CD 28, CD 49d and CD80; Pharmingen: TCRαβ and MHC II). Murine splenocytes (C57BI/6) were treated with red blood cell lysis buffer (eBioscience) for 5 min prior to EGCG treatments. Immediately following EGCG-treatments, the splenocytes were washed with RPMI 1640 (10% FCS) and a staining buffer (eBioscience) at 4 degree C. Each splenocyte sample was reconstituted as a 50 μl aliquot in the same staining buffer and subject to antibody labeling. After washing twice the samples with the staining buffer, a minimum of 10,000 events per sample was collected on a Becton Dickinson FACScan flow cytometer.

[1] = test system: BALB/c (stimulator cells) and C57BI/6 (responder cells) splenocytes; assay: Two-way mixed lymphocyte reaction (MLR); type: cell-based, murine; details: stimulator or responder cells treated with EGCG, 72 hours culture, FIG. 4
Source text: (§3) In a two-way MLR (FIG. 4), both stimulator and responder populations were left capable of proliferating. […] (penicillin 100 U/ml and streptomycin 100 ppm, BioWhittaker) to a final concentration of 5.0×10^6 cells/ml. […] Cell proliferation was estimated by counting with trypan-blue exclusion a small sample of the cells from each MLR well.

CD25 = biological target: T2, CD25 (Mus musculus, UniProt P01590); assay: Lymphocyte marker analysis by flow cytometry, CD25 epitope; type: cell-based, murine (C57BI/6 splenocytes); details: for percent expression of cell surface molecule CD25: epitope-specific antibody, average of triplicate; for average percent suppression in epitope detection, CD25: relative to untreated control (0 ppm)
T2 construct: endogenous in cells; host or cells: murine splenocytes (C57Bl/6)
T2 sequence (P01590 22-268): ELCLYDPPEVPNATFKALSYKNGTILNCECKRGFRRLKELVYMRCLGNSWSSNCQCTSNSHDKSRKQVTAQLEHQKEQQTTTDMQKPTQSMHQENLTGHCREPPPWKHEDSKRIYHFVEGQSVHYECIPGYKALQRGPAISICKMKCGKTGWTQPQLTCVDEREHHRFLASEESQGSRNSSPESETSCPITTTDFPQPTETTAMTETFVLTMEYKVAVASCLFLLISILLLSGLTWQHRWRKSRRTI
Procedure: as §1, §2

C57BI/6 splenocytes = assay: Viability of EGCG-treated splenocytes; type: cell-based, murine
Source text: as §3, with “well. […] Thus, the attenuation of proliferation as indicated in the MLR experiments (Example II) was not largely due to an EGCG's direct toxicity to the splenocytes. […] The experiments were performed as in Example II.” for “well.”

CD4 = biological target: T3, CD4 (Mus musculus, UniProt P06332); assay: Lymphocyte marker analysis by flow cytometry, CD4 epitope; type: cell-based, murine (C57BI/6 splenocytes); details: for percent expression of cell surface molecule CD4: epitope-specific antibody, average of triplicate; for average percent suppression in epitope detection, CD4: relative to untreated control (0 ppm)
T3 construct: endogenous in cells; host or cells: murine splenocytes (C57Bl/6)
T3 sequence (P06332 27-457): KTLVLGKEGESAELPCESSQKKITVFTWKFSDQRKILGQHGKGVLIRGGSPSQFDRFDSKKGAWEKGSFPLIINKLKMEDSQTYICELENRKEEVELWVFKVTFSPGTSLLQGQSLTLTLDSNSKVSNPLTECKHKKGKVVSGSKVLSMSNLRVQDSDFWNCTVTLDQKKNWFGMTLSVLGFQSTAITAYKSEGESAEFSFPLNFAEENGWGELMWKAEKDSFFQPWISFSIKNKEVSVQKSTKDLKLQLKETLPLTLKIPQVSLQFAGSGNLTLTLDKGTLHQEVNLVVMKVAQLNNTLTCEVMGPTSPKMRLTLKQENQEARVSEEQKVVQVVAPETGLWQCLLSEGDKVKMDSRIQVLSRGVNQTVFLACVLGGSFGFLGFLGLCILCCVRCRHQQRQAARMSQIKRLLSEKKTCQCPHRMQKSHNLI
Procedure: as §1, §2

Question: With (−)-epigallocatechin-3-o-gallate [EGCG] as the substance, how does the “percent expression of cell surface molecule CD80” value (CD80; EGCg 100 ppm) read?
Answer: The value was 3.1%.

Question: And the “average percent suppression in epitope detection, CD80” value (CD80; EGCg 100 ppm)?
Answer: Its value is “(85.4)** percent”.

Question: And the “percent expression of cell surface molecule CD80” value (CD80; EGCg 200 ppm)?
Answer: Its value is 9.7%.

Question: And the “average percent suppression in epitope detection, CD80” value (CD80; EGCg 200 ppm)?
Answer: The value was “(16.4)** percent”.

Question: What about the proliferation of splenocytes [1] of the same substance?
Answer: Its proliferation of splenocytes is “significantly decreased”.

Question: What about the “percent expression of cell surface molecule CD25” value (CD25; EGCg 100 ppm) of the same substance?
Answer: The value was 11.6%.

Question: What about the “average percent suppression in epitope detection, CD25” value (CD25; EGCg 100 ppm) of the same substance?
Answer: The value was “(16.5)^n.s. percent”.

Question: What about the “percent expression of cell surface molecule CD25” value (CD25; EGCg 200 ppm) of the same substance?
Answer: The value was 10.8%.

Question: What about the “average percent suppression in epitope detection, CD25” value (CD25; EGCg 200 ppm) of the same substance?
Answer: Its value is “(22.3)* percent”.

Question: What about the “blocking of CD25 by EGCG” value (CD25; summary of TABLE 1) of the same substance?
Answer: The value was “blocked”.

Question: What about the “viability of EGCG-treated splenocytes” value (C57BI/6 splenocytes; stimulated (C57BI/6 co-cultured with BALB/c), 24, 48, 72 hours, FIG. 6) of the same substance?
Answer: Its value is “time-dependent decrease”.

Question: What about the “viability of EGCG-treated splenocytes” value (C57BI/6 splenocytes; unstimulated (C57BI/6 only), 24, 48, 72 hours culture without EGCG, FIG. 5) of the same substance?
Answer: Its value is “did not significantly decreased”.

Question: And the “percent expression of cell surface molecule CD4” value (CD4; EGCg 100 ppm)?
Answer: Its value is 21.1%.

Question: And the “average percent suppression in epitope detection, CD4” value (CD4; EGCg 100 ppm)?
Answer: The value was “(12.1)* percent”.

Question: And the “percent expression of cell surface molecule CD4” value (CD4; EGCg 200 ppm)?
Answer: The value was 20.8%.

Question: And the “average percent suppression in epitope detection, CD4” value (CD4; EGCg 200 ppm)?
Answer: The value was “(13.3)* percent”.
